Patent US20220170028A1, “NOVEL INTERLEUKIN-2 VARIANTS AND BIFUNCTIONAL FUSION MOLECULES THEREOF” (Cugene Inc, priority 2019, published 2022)

Columns and labels:
[1] = tested on: CD4+ Tconv cells, CD8 T cells and NK cells; assay: Effector T cell and NK cell proliferation and expansion in mice after a single subcutaneous injection (Example 9); format: in vivo, mouse; conditions: 0.3 mg/kg single s.c., C57/BL6 mice
Method: (§1) IL-2 variant Fc fusion proteins were administered to mice and their ability to preferentially proliferate and expand regulatory T cells (CD4+CD25+FoxP3+ T cells) over effector T cells and NK cells were determined in vivo.
(§2) Female C57/BL6 mice (7-week old) were received from Charles River Laboratory and acclimated in house for at least 7 days before the study. Vehicle (PBS), 0.3 mg/kg of each test compounds, or IL-2 benchmark compounds were subcutaneously administered to mice on day 0. Peripheral blood samples were collected into heparin-treated tubes on days 3, 5 and 7 post-treatment. Each group contained 6 mice and baseline blood was collected 2 days prior to the treatment (day −2). After red blood cell lysis, total viable mononuclear blood cells were counted by trypan blue dead cell exclusion method and proceeded to intracellular staining for immune cell phenotype and Ki67 proliferation markers using flow cytometric analysis. Cells were stained separately with two panels of antibodies as listed: 1) anti-mouse Foxp3-FITC, Ki67-PE, anti-mouse CD25-APC and anti-mouse CD4-Percpcy5.5 (1:50 dilution) for CD4+T-regulatory cells (Treg); 2) anti-mouse CD3-FITC, Ki67-PE, anti-mouse CD335-APC and anti-mouse CD8-Percpcy5.5 (1:50 dilution) for CD8+T and NK cells.

Treg cells = assay: Treg proliferation and expansion in mice after a single subcutaneous injection (Example 9); format: in vivo, mouse; conditions: 0.3 mg/kg single s.c., C57/BL6 mice; for stimulation of Treg cell proliferation and expansion in vivo (in words): days 3, 5, 7
Method: as §1, §2

Substance | expansion of CD4+ Tconv cells, CD8 T cells or NK cells in vivo [1] | Treg/Tconv ratio (Ki67 stimulation and cell counts) (Treg cells; all measured time points) | stimulation of Treg cell proliferation and expansion in vivo (in words) (Treg cells) | Ki67 stimulation on CD8 T cells and NK cells in vivo (in words) [1]
P-0514: IL-2 L19Q/S125I/Q126E Fc fusion, SEQ ID NO: 216 | No significant expansion | most beneficial Treg/Tconv ratio | stronger in vivo efficacy | 
Benchmark-3: benchmark Fc-IL-2 variant fusion protein containing N88D, SEQ ID NO: 199 [reference compound] |  |  | not efficacious | low effects
